Results from patent US7407973B2, “Use of pirfenidone in therapeutic regimens” (Intermune, Inc., priority 2003, dated 2008).

Tests used:
Assay in all cases: Enzymatic activity of human kinase in presence of pirfenidone
Format in all cases: biochemical
Conditions in all cases: percent of control activity in absence of pirfenidone, concentration not given
[1] = molecular target: CHK1 (Homo sapiens, UniProt O14757)
Method: (§1) Enzymatic activity of various human kinases was assayed in the presence and the absence of pirfenidone. Percent enzyme activity of various human enzymes in the presence of substrate and pirfenidone are shown in FIGS. 1-5, and in Table 2, below, where “percent enzyme activity” is the percent of the control activity (e.g., in the absence of pirfenidone): […]

[2] = molecular target: c-RAF (Homo sapiens, UniProt P04049)
Method: as §1

[3] = tested on: CDK7/cyclinD3
Method: as §1

[4] = molecular target: Flt3 (Homo sapiens, UniProt P36888)
Chain of Flt3 (P36888 27-993): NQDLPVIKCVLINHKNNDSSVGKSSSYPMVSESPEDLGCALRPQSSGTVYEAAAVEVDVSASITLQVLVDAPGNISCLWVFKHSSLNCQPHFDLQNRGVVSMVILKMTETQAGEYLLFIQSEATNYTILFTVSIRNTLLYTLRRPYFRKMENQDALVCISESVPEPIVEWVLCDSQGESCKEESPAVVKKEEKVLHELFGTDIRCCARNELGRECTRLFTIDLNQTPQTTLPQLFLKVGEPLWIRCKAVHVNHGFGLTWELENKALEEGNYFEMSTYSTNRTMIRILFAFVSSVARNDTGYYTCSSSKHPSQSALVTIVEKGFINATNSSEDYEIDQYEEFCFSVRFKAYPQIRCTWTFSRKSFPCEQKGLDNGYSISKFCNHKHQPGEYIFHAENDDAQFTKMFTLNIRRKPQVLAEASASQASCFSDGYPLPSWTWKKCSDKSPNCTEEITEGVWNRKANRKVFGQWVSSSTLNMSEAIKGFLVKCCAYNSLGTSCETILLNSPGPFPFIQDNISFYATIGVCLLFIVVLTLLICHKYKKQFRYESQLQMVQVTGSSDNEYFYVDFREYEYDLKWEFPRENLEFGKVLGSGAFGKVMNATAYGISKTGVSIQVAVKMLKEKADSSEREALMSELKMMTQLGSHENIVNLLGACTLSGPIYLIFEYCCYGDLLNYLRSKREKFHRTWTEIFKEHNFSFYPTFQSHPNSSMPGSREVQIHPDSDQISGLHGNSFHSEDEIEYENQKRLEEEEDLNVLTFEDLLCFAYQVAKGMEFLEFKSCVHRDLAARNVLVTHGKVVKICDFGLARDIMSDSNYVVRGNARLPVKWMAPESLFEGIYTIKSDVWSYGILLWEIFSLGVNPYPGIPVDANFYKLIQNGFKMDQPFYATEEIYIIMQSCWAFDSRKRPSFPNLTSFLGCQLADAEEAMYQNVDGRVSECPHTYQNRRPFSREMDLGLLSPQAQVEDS
Method: as §1

[5] = molecular target: IKKα (Homo sapiens, UniProt O15111)
Method: as §1

[6] = molecular target: SAPK2β (Homo sapiens, UniProt Q15759)
Chain of SAPK2β (Q15759 whole entry): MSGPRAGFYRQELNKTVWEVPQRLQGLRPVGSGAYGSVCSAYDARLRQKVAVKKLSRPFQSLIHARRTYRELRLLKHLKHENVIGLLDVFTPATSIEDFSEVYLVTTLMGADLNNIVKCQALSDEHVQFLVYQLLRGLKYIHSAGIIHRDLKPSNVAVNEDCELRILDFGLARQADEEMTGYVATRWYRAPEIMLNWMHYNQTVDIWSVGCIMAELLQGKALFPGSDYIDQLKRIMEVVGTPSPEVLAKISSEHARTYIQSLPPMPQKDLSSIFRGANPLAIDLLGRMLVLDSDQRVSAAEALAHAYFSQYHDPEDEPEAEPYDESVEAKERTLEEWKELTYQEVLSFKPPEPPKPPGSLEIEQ
Method: as §1

[7] = molecular target: Lck (Homo sapiens, UniProt P06239)
Method: as §1

[8] = molecular target: CDK7/cyclinH/MAT1 (Homo sapiens, UniProt P50613)
Method: as §1

[9] = molecular target: PKCμ (Homo sapiens, UniProt Q15139)
Method: as §1

[10] = molecular target: MEK1 (Homo sapiens, UniProt Q02750)
Chain of MEK1 (Q02750 whole entry): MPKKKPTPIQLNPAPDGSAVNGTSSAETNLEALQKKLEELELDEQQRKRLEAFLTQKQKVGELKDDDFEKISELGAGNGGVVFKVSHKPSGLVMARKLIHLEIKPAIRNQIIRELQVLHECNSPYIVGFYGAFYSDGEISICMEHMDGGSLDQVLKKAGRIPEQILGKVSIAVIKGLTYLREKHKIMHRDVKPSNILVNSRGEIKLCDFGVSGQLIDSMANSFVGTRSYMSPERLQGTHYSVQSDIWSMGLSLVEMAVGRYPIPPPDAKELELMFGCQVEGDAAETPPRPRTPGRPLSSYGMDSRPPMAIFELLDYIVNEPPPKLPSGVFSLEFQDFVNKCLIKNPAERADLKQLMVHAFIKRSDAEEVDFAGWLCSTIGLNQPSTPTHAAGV
Method: as §1

[11] = molecular target: SAPK2α (Homo sapiens, UniProt Q16539)
Method: as §1

[12] = molecular target: CDK5/cyclinB (Homo sapiens, UniProt Q00535)
Method: as §1

[13] = molecular target: MKK7β (Homo sapiens, UniProt O14733)
Method: as §1

[14] = molecular target: Ax1 (Homo sapiens, UniProt P30530)
Method: as §1

[15] = molecular target: PDGFR (Homo sapiens, UniProt P16234)
Method: as §1

[16] = molecular target: GSK3α (Homo sapiens, UniProt P49840)
Method: as §1

[17] = molecular target: PKD2 (Homo sapiens, UniProt Q9BZL6)
Chain of PKD2 (Q9BZL6 whole entry): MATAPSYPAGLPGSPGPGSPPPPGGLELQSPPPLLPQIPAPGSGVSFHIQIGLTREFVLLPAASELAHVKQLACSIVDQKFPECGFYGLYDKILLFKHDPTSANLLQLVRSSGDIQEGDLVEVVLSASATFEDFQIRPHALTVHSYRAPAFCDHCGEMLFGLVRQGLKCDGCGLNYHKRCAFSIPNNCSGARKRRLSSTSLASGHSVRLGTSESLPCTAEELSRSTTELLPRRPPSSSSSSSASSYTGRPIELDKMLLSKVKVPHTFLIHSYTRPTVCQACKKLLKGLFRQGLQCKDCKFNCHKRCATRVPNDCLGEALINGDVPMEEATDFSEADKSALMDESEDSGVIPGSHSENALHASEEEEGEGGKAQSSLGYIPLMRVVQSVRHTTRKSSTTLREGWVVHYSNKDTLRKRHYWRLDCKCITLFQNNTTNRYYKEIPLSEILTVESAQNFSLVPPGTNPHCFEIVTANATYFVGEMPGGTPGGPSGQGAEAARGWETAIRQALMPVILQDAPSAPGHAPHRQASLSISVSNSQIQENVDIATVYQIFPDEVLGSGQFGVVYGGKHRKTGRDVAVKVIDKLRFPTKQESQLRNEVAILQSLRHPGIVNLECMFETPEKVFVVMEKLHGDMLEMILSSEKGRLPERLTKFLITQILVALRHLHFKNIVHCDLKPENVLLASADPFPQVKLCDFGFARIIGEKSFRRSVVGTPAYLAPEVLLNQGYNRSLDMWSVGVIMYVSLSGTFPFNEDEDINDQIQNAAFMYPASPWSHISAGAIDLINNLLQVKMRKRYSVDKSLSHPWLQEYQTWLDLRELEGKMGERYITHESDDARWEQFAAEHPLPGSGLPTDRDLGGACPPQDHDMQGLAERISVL
Method: as §1

[18] = molecular target: Fyn (Homo sapiens, UniProt P06241)
Chain of Fyn (P06241 whole entry): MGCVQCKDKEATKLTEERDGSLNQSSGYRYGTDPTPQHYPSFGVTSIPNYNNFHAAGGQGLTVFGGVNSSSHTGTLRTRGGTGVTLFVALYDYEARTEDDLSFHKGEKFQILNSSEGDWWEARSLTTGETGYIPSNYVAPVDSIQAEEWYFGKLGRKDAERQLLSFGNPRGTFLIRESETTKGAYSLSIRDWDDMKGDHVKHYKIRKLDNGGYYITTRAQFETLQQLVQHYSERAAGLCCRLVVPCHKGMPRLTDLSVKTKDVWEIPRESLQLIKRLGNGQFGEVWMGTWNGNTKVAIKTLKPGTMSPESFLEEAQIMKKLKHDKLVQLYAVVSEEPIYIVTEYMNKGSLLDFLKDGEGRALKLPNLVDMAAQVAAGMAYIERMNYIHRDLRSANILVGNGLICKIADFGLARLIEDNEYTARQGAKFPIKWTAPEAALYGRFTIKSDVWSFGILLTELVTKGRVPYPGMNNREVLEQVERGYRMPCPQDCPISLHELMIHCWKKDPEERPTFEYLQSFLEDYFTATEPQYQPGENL
Method: as §1

[19] = molecular target: JNK2 (Homo sapiens, UniProt P45984)
Method: as §1

[20] = molecular target: GSK3β (Homo sapiens, UniProt P49841)
Method: as §1

[21] = molecular target: MAPKAP-K2 (Homo sapiens, UniProt P49137)
Method: as §1

[22] = molecular target: IGF-1R (Homo sapiens, UniProt P08069)
Method: as §1

[23] = molecular target: ZAP-70 (Homo sapiens, UniProt P43403)
Method: as §1

[24] = molecular target: MKK6 (Homo sapiens, UniProt P52564)
Method: as §1

[25] = molecular target: Aurora-A (Homo sapiens, UniProt O14965)
Chain of Aurora-A (O14965 whole entry): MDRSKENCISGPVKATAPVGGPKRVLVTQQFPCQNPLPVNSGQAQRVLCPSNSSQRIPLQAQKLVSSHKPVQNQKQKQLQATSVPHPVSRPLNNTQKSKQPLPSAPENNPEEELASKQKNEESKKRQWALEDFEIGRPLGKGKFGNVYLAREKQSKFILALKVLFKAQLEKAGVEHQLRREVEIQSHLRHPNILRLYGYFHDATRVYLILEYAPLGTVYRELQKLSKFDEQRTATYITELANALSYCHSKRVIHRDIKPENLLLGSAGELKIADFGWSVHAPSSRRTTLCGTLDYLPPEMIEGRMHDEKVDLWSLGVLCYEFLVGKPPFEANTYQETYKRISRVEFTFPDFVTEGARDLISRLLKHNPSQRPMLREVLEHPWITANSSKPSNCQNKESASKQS
Method: as §1

[26] = molecular target: p70S6K (Homo sapiens, UniProt P23443)
Method: as §1

[27] = molecular target: CDK3/cyclinE (Homo sapiens, UniProt Q00526)
Method: as §1

[28] = molecular target: SGK (Homo sapiens, UniProt O00141)
Method: as §1

[29] = molecular target: Syk (Homo sapiens, UniProt P43405)
Method: as §1

[30] = molecular target: FGFR3 (Homo sapiens, UniProt P22607)
Method: as §1

[31] = molecular target: Lyn (Homo sapiens, UniProt P07948)
Method: as §1

[32] = molecular target: IR (Homo sapiens, UniProt P06213)
Method: as §1

[33] = molecular target: PKA (Homo sapiens, UniProt P17612)
Method: as §1

[34] = molecular target: Yes (Homo sapiens, UniProt P07947)
Chain of Yes (P07947 whole entry): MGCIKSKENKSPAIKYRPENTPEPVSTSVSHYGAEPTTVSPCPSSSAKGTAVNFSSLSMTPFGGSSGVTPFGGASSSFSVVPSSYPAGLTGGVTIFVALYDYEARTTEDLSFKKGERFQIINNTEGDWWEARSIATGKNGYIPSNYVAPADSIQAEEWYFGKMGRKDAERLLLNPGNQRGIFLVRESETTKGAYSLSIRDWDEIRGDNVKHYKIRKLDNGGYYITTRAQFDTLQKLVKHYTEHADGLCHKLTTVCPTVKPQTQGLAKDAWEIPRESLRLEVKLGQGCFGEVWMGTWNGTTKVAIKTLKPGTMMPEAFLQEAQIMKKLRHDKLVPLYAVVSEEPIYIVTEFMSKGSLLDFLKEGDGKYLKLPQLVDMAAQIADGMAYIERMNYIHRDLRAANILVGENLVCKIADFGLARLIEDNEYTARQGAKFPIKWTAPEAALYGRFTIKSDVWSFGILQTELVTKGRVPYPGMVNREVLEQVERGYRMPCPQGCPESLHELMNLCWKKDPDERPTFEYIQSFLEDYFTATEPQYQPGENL
Method: as §1

[35] = molecular target: CDK2/cyclinA (Homo sapiens, UniProt P24941)
Method: as §1

[36] = molecular target: TrkB (Homo sapiens, UniProt Q16620)
Chain of TrkB (Q16620 32-822): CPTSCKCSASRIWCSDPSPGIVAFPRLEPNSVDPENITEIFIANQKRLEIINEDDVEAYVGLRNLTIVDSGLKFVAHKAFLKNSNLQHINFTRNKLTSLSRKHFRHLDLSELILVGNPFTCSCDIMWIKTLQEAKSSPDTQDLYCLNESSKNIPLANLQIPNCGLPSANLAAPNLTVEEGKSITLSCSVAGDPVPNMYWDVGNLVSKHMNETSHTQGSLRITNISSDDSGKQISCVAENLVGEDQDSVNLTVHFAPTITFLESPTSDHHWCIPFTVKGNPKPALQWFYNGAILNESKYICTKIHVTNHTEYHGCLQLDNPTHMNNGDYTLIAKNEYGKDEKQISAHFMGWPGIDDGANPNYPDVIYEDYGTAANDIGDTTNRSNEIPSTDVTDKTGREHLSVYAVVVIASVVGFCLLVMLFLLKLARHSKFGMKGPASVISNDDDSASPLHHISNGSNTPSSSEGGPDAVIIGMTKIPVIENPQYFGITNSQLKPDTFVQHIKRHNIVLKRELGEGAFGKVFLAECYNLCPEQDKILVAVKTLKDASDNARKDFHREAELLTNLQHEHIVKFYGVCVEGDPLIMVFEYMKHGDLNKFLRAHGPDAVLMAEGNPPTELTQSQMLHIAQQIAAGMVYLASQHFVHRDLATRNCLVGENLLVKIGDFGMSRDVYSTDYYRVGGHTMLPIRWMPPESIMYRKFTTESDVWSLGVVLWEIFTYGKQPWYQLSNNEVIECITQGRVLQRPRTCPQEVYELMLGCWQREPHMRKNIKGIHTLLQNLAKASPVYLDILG
Method: as §1

[37] = tested on: PKCτ
Method: as §1

[38] = tested on: PKCo
Method: as §1

[39] = molecular target: JNK1 (Homo sapiens, UniProt P45983)
Method: as §1

[40] = molecular target: CDK2/cyclinE (Homo sapiens, UniProt P24941)
Method: as §1

[41] = tested on: PKCa
Method: as §1

[42] = molecular target: PKBγ (Homo sapiens, UniProt Q9Y243)
Method: as §1

[43] = molecular target: Bmx (Homo sapiens, UniProt P51813)
Method: as §1

In the case of Cc1ccc(=O)n(-c2ccccc2)c1 [pirfenidone, 5-methyl-1-phenyl-2-(1H)-pyridone], the “% Activity” value [1] is reported as 105%, the “% Activity” value [2] is reported as 91% and the “% Activity” value [3] is reported as 92%. The “% Activity” value [4] was 103%, the “% Activity” value [5] was 114% and the “% Activity” value [6] was 74%. The “% Activity” value [7] was 104%, the “% Activity” value [8] was 95% and the “% Activity” value [9] was 96%. For the same molecule, the “% Activity” value [10] was 100%, the “% Activity” value [11] was 70% and the “% Activity” value [12] was 102%. For the same molecule, the “% Activity” value [13] was 105%, the “% Activity” value [14] was 93% and the “% Activity” value [15] was 101%. The “% Activity” value [16] was 91%, the “% Activity” value [17] was 98% and the “% Activity” value [18] was 97%. The “% Activity” value [19] was 97%, the “% Activity” value [20] was 91% and the “% Activity” value [21] was 97%. For the same molecule, the “% Activity” value [22] was 92%, the “% Activity” value [23] was 109% and the “% Activity” value [24] was 84%. The “% Activity” value [25] was 120%, the “% Activity” value [26] was 96% and the “% Activity” value [27] was 86%. The “% Activity” value [28] was 106%, the “% Activity” value [29] was 78% and the “% Activity” value [30] was 104%. The “% Activity” value [31] was 92%, the “% Activity” value [32] was 97% and the “% Activity” value [33] was 109%. For the same molecule, the “% Activity” value [34] was 104%, the “% Activity” value [35] was 92% and the “% Activity” value [36] was 101%. For the same molecule, the “% Activity” value [37] was 96%, the “% Activity” value [38] was 106% and the “% Activity” value [39] was 105%. The “% Activity” value [40] was 89%, the “% Activity” value [41] was 96% and the “% Activity” value [42] was 111%. The “% Activity” value [43] was 86%.
